The source of these data is paper PMC9168271, “Discovery of Novel Tetrahydro-β-carboline Containing Aminopeptidase N Inhibitors as Cancer Chemosensitizers” (Frontiers in Oncology, 2022).

This test deals with Aminopeptidase N (APN, CD13) (Homo sapiens, UniProt P15144). The test can be described thus: APN enzyme inhibitory assay, supernatant of K562-CD13 cells as enzyme source, L-leucine-p-nitro anilide substrate.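 For all read-outs here: substrate L-leucine-p-nitro anilide used at 1.6 mM, with enzyme from sonicated APN-overexpressing K562 cell lysate supernatant, run in 96-well plates.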 As to conditions: for inhibition at 30 µM: read-out: Inhibitory rate (%).

Where two headings read alike, the source gives them in different places.

Aminopeptidase N (APN, CD13), sequence (P15144 whole entry): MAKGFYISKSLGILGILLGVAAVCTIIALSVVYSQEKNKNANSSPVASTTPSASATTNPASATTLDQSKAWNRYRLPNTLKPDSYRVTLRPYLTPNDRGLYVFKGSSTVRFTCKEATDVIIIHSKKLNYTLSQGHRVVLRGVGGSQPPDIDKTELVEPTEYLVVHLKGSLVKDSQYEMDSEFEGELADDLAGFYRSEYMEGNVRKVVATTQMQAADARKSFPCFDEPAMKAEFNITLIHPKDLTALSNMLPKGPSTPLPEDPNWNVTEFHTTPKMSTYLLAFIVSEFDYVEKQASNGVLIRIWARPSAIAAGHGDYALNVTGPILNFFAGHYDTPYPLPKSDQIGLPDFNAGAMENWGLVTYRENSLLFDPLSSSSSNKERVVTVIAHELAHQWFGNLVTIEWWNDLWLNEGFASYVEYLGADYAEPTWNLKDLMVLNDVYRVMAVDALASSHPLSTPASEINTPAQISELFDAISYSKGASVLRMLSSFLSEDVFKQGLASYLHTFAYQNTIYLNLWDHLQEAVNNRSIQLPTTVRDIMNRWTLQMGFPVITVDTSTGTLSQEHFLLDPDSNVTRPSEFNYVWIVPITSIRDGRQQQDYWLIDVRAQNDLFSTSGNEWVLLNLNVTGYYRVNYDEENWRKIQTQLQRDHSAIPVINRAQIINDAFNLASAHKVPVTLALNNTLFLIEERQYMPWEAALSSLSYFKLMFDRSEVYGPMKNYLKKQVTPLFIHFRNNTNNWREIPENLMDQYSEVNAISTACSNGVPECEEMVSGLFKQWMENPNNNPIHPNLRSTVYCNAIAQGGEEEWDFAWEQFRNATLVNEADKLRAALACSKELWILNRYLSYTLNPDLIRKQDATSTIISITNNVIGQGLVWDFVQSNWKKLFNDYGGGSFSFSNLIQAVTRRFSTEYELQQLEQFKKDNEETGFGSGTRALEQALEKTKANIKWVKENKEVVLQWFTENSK
Protocol: In the enzyme inhibitory assay, K562-CD13 monoclonal cells were used as APN enzyme source as described in our previous work ([27]).
K562 cells with overexpression of APN were added into PBS for ultrasonic crushing, centrifuged for 10 minutes, and supernatant was taken as enzyme source and added into 96-well plate. Different concentrations of compounds were added subsequently, and 1.6 mM L-leucine-p-nitro anilide was used as substrate. After 30 minutes of reaction, the APN enzyme activity was measured at 405 nm absorbance. The inhibition rate of APN activity was analyzed by the formula (Od control OD tested)/Od control 100%.

`O=C(Cn1c2c(c3ccccc31)CCN(C(=O)c1ccc(C(F)(F)F)cc1)C2)NO` [Compound D1, N-hydroxy-2-(2-(4-(trifluoromethyl)benzoyl)-1,2,3,4-tetrahydro-9H-pyrido[3,4-b]indol-9-yl)acetamide]: the inhibition at 30 µM was 35 ± 1.51%.

Turning to `O=C(NO)c1ccc(Cn2c3c(c4ccccc42)CCN(C(=O)c2ccc(C(F)(F)F)cc2)C3)cc1` [Compound D2, N-hydroxy-4-((2-(4-(trifluoromethyl)benzoyl)-1,2,3,4-tetrahydro-9H-pyrido[3,4-b]indol-9-yl)methyl)benzamide], the inhibition at 30 µM was found to be 13.3 ± 3.25%.

As for `O=C(Cn1c2c(c3ccccc31)CCN(C(=O)c1ccccc1)C2)NO` [Compound D3, 2-(2-benzoyl-1,2,3,4-tetrahydro-9H-pyrido[3,4-b]indol-9-yl)-N-hydroxyacetamide], inhibition was half-maximal at 6.24 ± 0.43 µM (IC50) and the inhibition at 30 µM was determined as 74.4 ± 6.42%.

Take `O=C(NO)c1ccc(Cn2c3c(c4ccccc42)CCN(C(=O)c2ccccc2)C3)cc1` [Compound D4, 4-((2-benzoyl-1,2,3,4-tetrahydro-9H-pyrido[3,4-b]indol-9-yl)methyl)-N-hydroxybenzamide]: the inhibition at 30 µM amounted to 19.4 ± 4.53%.

`O=C(Cn1c2c(c3ccccc31)CCN(C(=O)c1ccccc1C(F)(F)F)C2)NO` [Compound D5, N-hydroxy-2-(2-(2-(trifluoromethyl)benzoyl)-1,2,3,4-tetrahydro-9H-pyrido[3,4-b]indol-9-yl)acetamide]: the half-maximal inhibitory concentration (IC50) was 14.9 ± 1.03 µM and the inhibition at 30 µM was found to be 62.9 ± 8.72%.

For the molecule `O=C(NO)c1ccc(Cn2c3c(c4ccccc42)CCN(C(=O)c2ccccc2C(F)(F)F)C3)cc1` [Compound D6, N-hydroxy-4-((2-(2-(trifluoromethyl)benzoyl)-1,2,3,4-tetrahydro-9H-pyrido[3,4-b]indol-9-yl)methyl)benzamide], the inhibition at 30 µM is 15.3 ± 3.66%.

As for `COc1ccccc1C(=O)N1CCc2c(n(Cc3ccc(C(=O)NO)cc3)c3ccccc23)C1` [Compound D7, N-hydroxy-4-((2-(2-methoxybenzoyl)-1,2,3,4-tetrahydro-9H-pyrido[3,4-b]indol-9-yl)methyl)benzamide], the inhibition at 30 µM was found to be 17.9 ± 0.84%.

For the molecule `COc1ccccc1C(=O)N1CCc2c(n(CC(=O)NO)c3ccccc23)C1` [Compound D8, N-hydroxy-2-(2-(2-methoxybenzoyl)-1,2,3,4-tetrahydro-9H-pyrido[3,4-b]indol-9-yl) acetamide], for the setting “compound at 30 µM, mean of at least three experiments”, the “Inhibitory rate (%)” value is 56.7±0.42%. This molecule also displayed an IC50 (mean of at least three experiments) of 25 ± 3.32 µM.

On to `COc1ccc(C(=O)N2CCc3c(n(Cc4ccc(C(=O)NO)cc4)c4ccccc34)C2)cc1` [Compound D9, N-hydroxy-4-((2-(4-methoxybenzoyl)-1,2,3,4-tetrahydro-9H-pyrido[3,4-b]indol-9-yl)methyl)benzamide], for which the inhibition at 30 µM was found to be 24 ± 0.25%.

Consider `O=C(Cn1c2c(c3ccccc31)CCN(C(=O)c1ccc(F)cc1)C2)NO` [Compound D10, 2-(2-(4-fluorobenzoyl)-1,2,3,4-tetrahydro-9H-pyrido[3,4-b]indol-9-yl)-N-hydroxyacetamide], for which the inhibition at 30 µM is 42.5 ± 1.42%.

In the case of `O=C(NO)c1ccc(Cn2c3c(c4ccccc42)CCN(C(=O)c2ccc(F)cc2)C3)cc1` [Compound D11, 4-((2-(4-fluorobenzoyl)-1,2,3,4-tetrahydro-9H-pyrido[3,4-b]indol-9-yl)methyl)-N-hydroxybenzamide], the inhibition at 30 µM worked out at 35 ± 4.57%.

In the case of `O=C(NO)c1ccc(Cn2c3c(c4ccccc42)CCN(C(=O)c2cccc(F)c2)C3)cc1` [Compound D13, 4-((2-(3-fluorobenzoyl)-1,2,3,4-tetrahydro-9H-pyrido[3,4-b]indol-9-yl)methyl)-N-hydroxybenzamide], the inhibition at 30 µM stood at 13.2 ± 0.4%.

Consider `O=C(NO)c1ccc(Cn2c3c(c4ccccc42)CCN(C(=O)c2ccccc2F)C3)cc1` [Compound D15, 4-((2-(2-fluorobenzoyl)-1,2,3,4-tetrahydro-9H-pyrido[3,4-b]indol-9-yl)methyl)-N-hydroxybenzamide], for which the inhibition at 30 µM was found to be 28.7 ± 2.75%.

Consider `Cc1ccccc1C(=O)N1CCc2c(n(Cc3ccc(C(=O)NO)cc3)c3ccccc23)C1` [Compound D17, N-hydroxy-4-((2-(2-methylbenzoyl)-1,2,3,4-tetrahydro-9H-pyrido[3,4-b]indol-9-yl)methyl)benzamide], for which the inhibition at 30 µM came out at 23.6 ± 4.51%.

Regarding `CCc1ccc(C(=O)N2CCc3c(n(CC(=O)NO)c4ccccc34)C2)cc1` [Compound D18, 2-(2-(4-ethylbenzoyl)-1,2,3,4-tetrahydro-9H-pyrido[3,4-b]indol-9-yl)-N-hydroxyacetamide], the inhibition at 30 µM was determined as 53.2 ± 2.08%.

Consider `CCc1ccc(C(=O)N2CCc3c(n(Cc4ccc(C(=O)NO)cc4)c4ccccc34)C2)cc1` [Compound D19, 4-((2-(4-ethylbenzoyl)-1,2,3,4-tetrahydro-9H-pyrido[3,4-b]indol-9-yl)methyl)-N-hydroxybenzamide], for which the inhibition at 30 µM was 19.5 ± 4.22%.

On to `O=C(NO)c1ccc(Cn2c3c(c4ccccc42)CCN(C(=O)c2ccccc2Cl)C3)cc1` [Compound D20, 4-((2-(2-chlorobenzoyl)-1,2,3,4-tetrahydro-9H-pyrido[3,4-b]indol-9-yl)methyl)-N-hydroxybenzamide], for which the inhibition at 30 µM was 19.1 ± 4.17%.

In the case of `O=C(Cn1c2c(c3ccccc31)CCN(C(=O)c1cccc(Br)c1)C2)NO` [Compound D21, 2-(2-(3-bromobenzoyl)-1,2,3,4-tetrahydro-9H-pyrido[3,4-b]indol-9-yl)-N-hydroxyacetamide], inhibition was half-maximal at 7.82 ± 1.05 µM (IC50) and the inhibition at 30 µM is 78.2 ± 5.43%.

Regarding `O=C(NO)c1ccc(Cn2c3c(c4ccccc42)CCN(C(=O)c2cccc(Br)c2)C3)cc1` [Compound D22, 4-((2-(3-bromobenzoyl)-1,2,3,4-tetrahydro-9H-pyrido[3,4-b]indol-9-yl)methyl)-N-hydroxybenzamide], the inhibition at 30 µM is 19.2 ± 3.7%.

With `O=C(NO)c1ccc(Cn2c3c(c4ccccc42)CCN(C(=O)c2ccc(F)cc2F)C3)cc1` [Compound D23, 4-((2-(2,4-difluorobenzoyl)-1,2,3,4-tetrahydro-9H-pyrido[3,4-b]indol-9-yl)methyl)-N-hydroxybenzamide], the inhibition at 30 µM was determined as 65 ± 5.97%.

Consider `O=C(Cn1c2c(c3ccccc31)CCN(C(=O)c1cc(F)cc(F)c1)C2)NO` [Compound D24, 2-(2-(3,5-difluorobenzoyl)-1,2,3,4-tetrahydro-9H-pyrido[3,4-b]indol-9-yl)-N-hydroxyacetamide], for which the concentration for half-maximal inhibition (IC50) is 7.13 ± 0.13 µM and the inhibition at 30 µM was found to be 71.3 ± 4.25%.

For `O=C(NO)c1ccc(Cn2c3c(c4ccccc42)CCN(C(=O)c2cc(F)cc(F)c2)C3)cc1` [Compound D25, 4-((2-(3,5-difluorobenzoyl)-1,2,3,4-tetrahydro-9H-pyrido[3,4-b]indol-9-yl)methyl)-N-hydroxybenzamide], the inhibition at 30 µM was 27.9 ± 5.85%.

With `CCCc1ccc(C(=O)N2CCc3c(n(CC(=O)NO)c4ccccc34)C2)cc1` [Compound D26, N-hydroxy-2-(2-(4-propylbenzoyl)-1,2,3,4-tetrahydro-9H-pyrido[3,4-b]indol-9-yl)acetamide], the inhibition at 30 µM is 53.1 ± 7.31%.

Take `CCCc1ccc(C(=O)N2CCc3c(n(Cc4ccc(C(=O)NO)cc4)c4ccccc34)C2)cc1` [Compound D27, N-hydroxy-4-((2-(4-propylbenzoyl)-1,2,3,4-tetrahydro-9H-pyrido[3,4-b]indol-9-yl)methyl)benzamide]: the inhibition at 30 µM is 20.4 ± 5.78%.

Regarding `O=C(Cn1c2c(c3ccccc31)CCN(C(=O)c1cc(F)ccc1F)C2)NO` [Compound D28, 2-(2-(2,5-difluorobenzoyl)-1,2,3,4-tetrahydro-9H-pyrido[3,4-b]indol-9-yl)-N-hydroxyacetamide], half-maximal inhibition (IC50) was put at 4.85 ± 0.55 µM and the inhibition at 30 µM was 78 ± 3.95%.

On to `O=C(Cn1c2c(c3ccccc31)CCN(C(=O)c1c(F)cccc1Cl)C2)NO` [Compound D29, 2-(2-(2-chloro-6-fluorobenzoyl)-1,2,3,4-tetrahydro-9H-pyrido[3,4-b]indol-9-yl)-N-hydroxyacetamide], for which half-maximal inhibition (IC50) was put at 9.23 ± 0.67 µM and the inhibition at 30 µM was 60 ± 4.95%.
